Measurements taken from patent US20090209473A1, “Componds and methods for pormoting angiogenesis” (priority 2003, published 2009).
Several values for one entry are separate records, joined by “and”; a condition that tells them apart may be missing. Equal values may be shown once.

Experiments:
[1] = tested on: Human umbilical vein endothelial cells (HUVEC); test: HUVEC cluster sprouting in collagen gel (Example 1 in vitro model); format: cell-based; settings: for sprout length versus cells receiving VEGF only: co-administered with VEGF
Protocol: Human umbilical vein endothelial cells (HUVEC) were used to evaluate various gamma-secretase inhibitors for potential angiogenesis effect. A 72 cm2 flask of confluent cells (1.5-2 E6 cells) was trypsinized with 3.5 ml trypsin/EDTA. After a maximum of 3 minutes, the cells were rinsed with 1.5 ml serum then centrifuged at 200 g for 3 minutes. After centrifugation, the supernatant was discarded and the cells resuspended in medium (endothelial cell growth medium (Promocell) with additional 10% serum). Cell concentration was diluted to 2.0×10^4 cells/ml in medium supplemented with 20% methocel stock solution. The cells were clustered in hanging drops of 20 μl (400 cells) overnight.
To imbed the cells in gel, the drops were first rinsed with PBS. The clusters were centrifuged at 200 g for 3 minutes and the supernatant removed. Centrifuge tubes were then briefly drawn over a rough surface to loosen the pellet. The clusters were resuspended in ice cold methocel stock solution supplemented with 20% protein. An equal amount of collagen I-gel at 3 mg/ml (Becton-Dickinson) was carefully mixed with the cells. Immediately thereafter, 1000 μl of the gel/cell cluster mixture was added to each well of a preheated (37° C.) 24-well plate. The plate was incubated for 30 minutes at 37° C., 5% CO2 and 100% humidity. One hundred μl of medium, along with the desired test substance and optionally 2.5 μl of 10 μg/ml VEGF were added to each well to a final concentration in the top medium of 250 ng/ml and 25 ng/ml in the well. Negative control cells received medium only and positive control cells received medium and VEGF only. The wells without gel were given 1 ml PBS.
To quantify the results, ten clusters from each […] were photographed. The length of the five longest sprouts on each cluster was measured, and the sum of the sprout length from each cluster calculated. Average values from ten clusters were obtained.
The above-mentioned methocel stock solution was prepared by autoclaving 6 grams of pure methyl cellulose powder (Sigma) in a 500 ml flask containing a magnetic stirrer. After autoclaving the methyl cellulose was dissolved in 250 ml of basal medium preheated to 60° C. for 20 minutes. An additional 250 ml of basal medium at room temperature was added to a final volume of 500 ml and the solution stirred overnight. Finally, the stock solution was aliquotted and cleared through centrifugation at 5000g for 2 hours at room temperature. The 90-95% of the material which became the clear, highly viscous supernatant was used.

[2] = tested on: HUVEC spheroids; test: HUVEC spheroid sprouting, cumulative sprout length (Example 5 modified in vitro model); format: cell-based, Human; settings: for sprout length versus control across concentrations: 100, 20, 4, 0.8, 0.16, 0.032 μM
Protocol: Similar to the approach described in Example 1, two further compounds were evaluated for their ability to initiate or increase angiogenesis. HUVEC spheroids were prepared by pipetting 400 HUVE cells (PromoCell, Heidelberg, Germany, cultured according to supplier's instructions) into each well of non-adhesive 96-well plates and allowed to aggregate overnight. After harvesting, 48 spheroids were seeded in 900 μl of methocel-collagen solution and pipetted into individual wells in a 24-well plate, allowing for collagen gel polymerization. After 30 minutes, freshly-prepared test compounds were added (prepared by dissolving lyophilized compound at a concentration of 10 mM in DMSO, specific concentrations administered described below) by pipetting 100 μl of a 10-fold concentrated working dilution on top of the gel. At the end of the incubation period the dishes were fixed for 24 hours at 37° C. with paraformaldehyde.
Sprouting intensity of endothelial cells was quantitated by an image analysis system determining the cumulative sprout length per spheroid using an Olympus IX50 inverted microscope and Olympus image analysis software. The mean of the cumulative sprout length of 10 randomly selected spheroids was analyzed as an individual data point.

[3] = tested on: Oxygen-induced retinopathy mice; test: Oxygen-induced retinopathy mouse model, retinal whole mount analysis; format: in vivo
Description: Oxygen-induced retinopathy mice were used to determine the extent and effect of gamma-secretase inhibitors on the angiogenic process. Mice with oxygen induced retinopathy (OIR mice) are a commonly-used model and are described in the literature (see, Smith et al, supra). They are at times referred to as retinopathy of prematurity models or ROP mice. The model takes advantage of the fact that full term mice pups are born with an immature retinal vascularization which matures during the first three weeks of postnatal growth. Briefly, neonatal mice (NMRI/C57b1) from the same litter were placed, with their nursing mother, in a hyperoxic environment (75% oxygen) at age day seven. After exposure to the hyperoxic environment for 5 days, the 12-day old pups were removed to normal air. In the treated mice, DAPT was administered once daily during age days 12-16. Control pups were treated the same way but injected with the vehicle. At post natal day 17 the mice were euthanized and the retinas were prepared for whole mount immunohistochemistry. Except for the mode of injection, the stock solution of DAPT was prepared and administered essentially as described in Lanz et al., (2003, J. Pharmacol. Exp. Ther. 305:864-71). In short, 5 mg DAPT was dissolved in 25 μl 99.5% EtOH and then dissolved in 475 μl Corn oil (Sigma, Catalog No. C8267). If precipitate formed, the solution was heated to 70° C. for 2-3 minutes. The pups were injected subcutaneously once a day according to: V(μl)=weight (g)*10, that is, 100 mg DAPT/kg body weight. Control pups were injected subcutaneously once a day with the same amount of vehicle (i.e. 5% EtOH in corn oil). Eyes were fixed in 4% PFA in PBS at 4° C. overnight and washed in PBS. […] This can be quantified in the superficial capillary plexus by counting the number of capillary enclosed areas in the peripheral part of the retina.

[4] = tested on: new born mice; test: Physiological retinal angiogenesis in new born (non-OIR) mice; format: in vivo; settings: administered postnatal days 3 and 4, retinas analysed day 5
Protocol: To investigate if the increased retinal vascularization after DAPT treatment was restricted to the OIR, the effect of DAPT on physiological angiogenesis in new born mice was investigated. DAPT was administered to new born mice on postnatal days 3 and 4 and retinas were analyzed at day 5 as described above. […] This can be observed by comparing the degree of vascularization in the retina of control animals, FIGS. 20 and 21, with that of treated animals as shown in FIGS. 22 and 23. Except for the increased vascular density, the vascular architecture was normal. The growth of the vascular network towards the periphery and the arterio-venous specification were intact for DAPT-treated mice as with controls.

[5] = 100 μM test compound co-administered with 25 ng/ml VEGF-A
[6] = 100 μM test compound, no VEGF-A

Molecule: CC1(C)[C@@H]2CC[C@@](C)(C2)[C@@H]1NS(=O)(=O)c1ccc(F)cc1 [1-(S)-endo-N-(1,3,3)-Trimethylbicyclo[2.2.1]hept-2-yl)-4-fluorophenyl Sulfonamide]
- average sprout length ([1]; 0.16 μM test compound, no VEGF): 280 μm
- increase in length versus control cells ([1]; 0.16 μM, no VEGF): 100%
- average sprout length ([1]; 20 μM test compound co-administered with VEGF): 480 μm

Molecule: C[C@H](NC(=O)C(O)c1cc(F)cc(F)c1)C(=O)N[C@H]1N=C(c2ccccc2)c2ccccc2N(C)C1=O (stereo partly drawn) [Compound X, S-3-[N′-(3,5-difluorophenyl-alpha-hydroxyacetyl)-L-alanilyl]amino-2,3-dihydro-1-methyl-5-phenyl-1H-1,4-benzodiazepin-2-one]
- sprouting versus VEGF-A only ([2]; 4 μM test compound co-administered with VEGF-A): increase the sprouting significantly
- cumulative length of all sprouts (CSL) [2, 5]: 4289 μm
- cumulative length of all sprouts (CSL) [2, 6]: 1630 μm
- sprout length versus control across concentrations ([2]; no VEGF-A): Only the two lowest concentrations tested failed to produce longer sprouts that control

Molecule: C[C@H](NC(=O)Cc1cc(F)cc(F)c1)C(=O)N[C@H](C(=O)OC(C)(C)C)c1ccccc1 [DAPT]
- average sprout length ([1]; 0.08 μM test compound, no VEGF, +/- SEM): 330+/−28 μm
- average sprout length ([1]; 0.4 μm DAPT co-administered with VEGF): 550+/−32 μm
- sprout length at increasing levels ([1]; DAPT 0.4, 2, 10 and 50, no VEGF, versus 0.08 μM): further increases in sprout length
- sprout length versus cells receiving VEGF only [1]: increases in sprout length over those with VEGF alone
- avascular zones in the central retina ([3]; 100 mg/kg s.c. once daily days 12-16, analysed day 17): almost completely lack the vascular-free zones
- number of capillary enclosed areas in the peripheral retina ([3]; 100 mg/kg s.c. once daily days 12-16, day 17, versus vehicle control): near doubling
- vascular (capillary) tufts in retina ([3]; 100 mg/kg s.c. once daily days 12-16, versus control): significant reduction in capillary tufts
- peripheral retinal vascular density [4]: increased peripheral vascular density
- vascular architecture of retina [4]: normal

Molecule: CC(C)[C@H](O)C(=O)N[C@@H](C)C(=O)N[C@@H]1C(=O)N(C)CCc2ccccc21 [LY-450, 139, (N)—[(S)-2-hydroxy-3-methyl-butyryl]-1-(L-alaninyl)-(S)-1-amino-3-methyl-4,5,6,7-tetrahydro-2H-3-benzazepin-2-one]
- cumulative length of all sprouts (CSL) [2, 5]: 3521 μm
- cumulative length of all sprouts (CSL) [2, 6]: 1730 μm
- sprout length versus control across concentrations ([2]; no VEGF-A): lower concentrations were not found to be effective
- sprout length versus VEGF-A only across concentrations ([2]; 100 to 0.032 μM co-administered with 25 ng/ml VEGF-A): Only the lowest concentration tested failed to produce longer sprouts that VEGF-A

Molecule: COC(=O)[C@@H](NC(=O)[C@H](CC(C)C)NC(=O)N(Cc1ccccc1)C[C@@H](O)[C@H](Cc1ccccc1)NC(=O)OC(C)(C)C)C(C)C [WPE-III-31C]
- average sprout length ([1]; 0.16 μM test compound co-administered with VEGF): 410 μm
- average sprout length ([1]; 0.16 μM test compound, no VEGF): 230 μm
- sprout length at increasing concentrations ([1]; WPE-III-31C 0.16, 0.8 and 4 μM, no VEGF): only increased with increasing concentrations
- sprout length versus cells receiving VEGF only [1]: significantly longer sprout lengths than the control cells

Molecule: VEGF
- average sprout length ([1]; VEGF only (positive control), 25 ng/ml in the well): 460 μm and 370 μm and 320 μm
- cumulative length of all sprouts (CSL) ([2]; VEGF-A only, 25 ng/ml): 1794 μm and 1860+/−100 μm
